We go through three molecules from PMC7024556 (Molecules, 2020).

A word on the IC50: it is the concentration at which inhibition is half-maximal.

Data set [1] relates to poly (ADP-ribose) (PAR) polymerization in HeLa cells. The data set is described as follows: Cellular PARylation assay (H2O2-induced PAR polymerization). In kind it is cell-based. As to conditions: for IC50: Homo sapiens, 18 h compound, 500 μM H2O2, read-out: Inhibit Polymerization of PAR IC50. As for the experimental part:
The cellular PARylation assay evaluated the ability of test compounds to inhibit polymerization of PAR. Hela cells were seeded in 96-well plates (10,000 cells/well) in 200 μL of cell complete medium, and were allowed to adhere for 4 h at 37 °C in a humidified atmosphere of 5% CO2. The medium was then removed from the plates, and the cells were treated with varying concentrations of test compounds for 18 h. 100 μL serum-free medium with 500 μM H2O2 solution was added, and the plate was kept at 37 °C for 5 min. Next, cells were fixed for 20 min with prechilled methanol at −20 °C and were incubated with 60 μL Poly(ADP-ribose) monoclonal antibody (1:2000) (prepared at 1x PBS containing 0.05% Tween-20 with 1% bovine serum albumin) at 37 °C for 2 h, followed by incubation with 60 μL IRDye 800CW goat anti-mouse IgG (diluted to 1:5000) and DNA stain DRAQ5 (1:5000) (prepared at 1× PBS containing 0.05% Tween-20 with 1% bovine serum albumin) at 37 °C for 2 h. The fluorescent signal was normalized with the DRAQ5 signal, and IC50 values were calculated using GraphPad Prism 8.0 software.

Data set [2] deals with MX-1 cells (BRCA1-deficient). Briefly: Cell proliferation assay (CellTiter-Glo), MX-1. In kind it is cell-based. Conditions: for IC50: Homo sapiens, MX1, light or radiation study, 10 days incubation. How it is done: (§1) To assess the cytotoxicity of test compounds on BRCA-deficient cells using a CellTiter-Glo assay. MX-1 cells (BRCA1-deficient) and Capan-1 cells (BRCA2-deficient) were seeded in 96-well plates at densities that allowed linear growth for 10 days, and adhered overnight at 37 °C in a humidified atmosphere of 5% CO2. Cells were treated in their recommended growth medium containing varying concentrations of test compounds. […] After 10 days of incubation, CellTiter-Glo Reagent (Promega, Madison, WI, USA) was added to the plates, which continued to be incubated for 30 min at room temperature. Chemiluminescence values were recorded by a multiplate reader, and IC50 values were calculated using GraphPad Prism 8.0 software.
(Cellular ATP, detected with luciferase, serves as a proxy for viable cell number.)

The test system of data set [3] is Capan-1 cells (BRCA2-deficient). The data set is described as follows: Cell proliferation assay (CellTiter-Glo), Capan-1. In kind it is cell-based. Conditions: for IC50: Homo sapiens, CAPAN-1, light or radiation study, 10 days incubation. How it is done:
as §1

Data set [4] in a line: Talazoparib UV stability assay (HPLC). In kind it is physicochemical. As to conditions: 2.63 mM in methanol, 365 nm, up to 10 min. As for the experimental part:
The irradiation times were 1 min, 2 min, 3 min, 4 min, 5 min, and 10 min. The irradiated solution was transferred to a volumetric flask and diluted to the same volume with methanol. Then HPLC analysis was performed to detect the compound peak area. […] California, CA, USA) using a mobile phase A (water) and mobile phase B (acetonitrile (ACN)) to elute. The gradient changed from 70% A to 30% A in 10 min, then continuing to elute with 30% A for 5 min. The flow rate was 1 mL/min, and the detection wavelength was 220 nm.

The subject of data set [5] is PARP. Conditions: PARP inhibitor potency; cited from earlier work.
Data set [6] concerns the target T1, PARP-1 enzyme (Homo sapiens, UniProt P09874).
T1 construct: purchased BPS 80569
Briefly: PARP-1 enzyme inhibition assay (PARP-1 Chemiluminescent Assay Kit). In kind it is biochemical. As for the experimental part: A PARP-1 Chemiluminescent Assay Kit (Cat# 80569, BPS, San Diego, CA, USA) was used to detect the ability of compounds to inhibit PARP-1 enzyme activity. All experimental steps followed the operating manual. Firstly, each well was precoated with 25 μL 1× histone mixture that was diluted in PBS by incubation at 4 °C overnight. The wells were blocked by adding 100 μL of blocking buffer, then incubated at room temperature for 90 min. Then 12.5 μL of the prepared 1× PARP assay mixture and 1× activated DNA in 1× PARP buffer were added into each well of the assay plate, and 2.5 μL of compound or solvent control were added at varying concentrations. The reaction was initiated by the addition of 10 μL 1 ng/μL PARP-1 enzyme in 1× PARP buffer at room temperature for 60 min. Next, the reaction solution was added with 25 μL of diluted Streptavidin-HRP (1:50 in blocking buffer) to each well at room temperature for an additional 30 min. Finally, 25 μL of Horseradish Peroxidase (HRP) chemiluminescent substrate A and 25 μL of HRP chemiluminescent substrate B were mixed on ice, and the mixture was added by 50 μL per well. The luminescent signal was measured using a multi-function microplate reader, and IC50 values were calculated using GraphPad Prism 8.0 software.

Data set [7] in a line: Phosphate-buffered saline stability of the photoactivatable prodrug (HPLC). In kind it is physicochemical. As to conditions: 20 μM, pH = 7.4 PBS with 10% DMSO, 37 °C, 48 h. As for the experimental part:
Twenty μM of the test compound in pH = 7.4 PBS, containing 10% DMSO, were transferred to 13 1 mL volumetric flasks in equal volumes, incubated at 37 °C. The volumetric flasks were taken out at 0 min, 5 min, 10 min, 15 min, 30 min, 1 h, 2 h, 4 h, 8 h, 12 h, 24 h, 48 h, and 7 days, and were frozen at −80 °C. The samples were thawed in sequence and diluted to the same volume with methanol. Then HPLC analysis was performed to detect the compound peak area. Samples were determined on an Agilent Eclipse Plus C18 column (4.6 × 150 mm, 5 μm particle size; California, CA, USA) using a mobile phase A (water) and mobile phase B (ACN) to elute. The gradient changed from 70% A to 30% A in 10 min, continuing to elute with 30% A for 5 min. The flow rate was 1 mL/min, and the detection wavelength was 220 nm.

Data set [8] can be described thus: UV cleavage test in methanol (HPLC). In kind it is physicochemical. As to conditions: 20 μM in methanol, 365 nm UV. As for the experimental part: The compound was dissolved in methanol (20 μM), and the solution were irradiated at 365 nm by using an UV crosslinker. Every minute from 0 to 10 min, aliquot samples (200 μL) were determined on an Agilent Eclipse Plus C18 column (4.6 × 150 mm, 5 μm particle size) using mobile phase A (water) and mobile phase B (ACN) to elute. The gradient changed from 70% A to 30% A in 10 min, continuing to elute with 30% A for 5 min. The flow rate was 1 mL/min and the detection wavelength was 220 nm. The peak areas percentage of the compounds at each time point were plotted against the sampling time.

A short description of data set [9]: UV cleavage test in culture medium DMEM in 96-well plate (HPLC). In kind it is physicochemical. Conditions: 10 μM in DMEM, 365 nm, 3 min. As for the experimental part: Therefore, we tested the Capan-1 cells that could tolerate a longer UV irradiation duration. […] We simulated the same cytotoxicity experimental conditions to evaluate the photolysis of 10 μΜ compound 3 (10 μM is the starting concentration of compound 3 in cytotoxicity experiments) in a 96-well plate.
Supplementary Materials: Design, Synthesis and In Vitro Evaluation of the […]
Jiaguo Li 1, 2, Dian Xiao 2, Lianqi Liu 2, Fei Xie 2, Wei Li 2, Wei Sun 1,*, Xiaohong Yang 1,*, and Xinbo Zhou 2,* […]
wavelength scanning; (B) Local UV/Vis absorption spectra with a wavelength range of 290-500 nm. Compound […]
Introduction of the PPG into the parent compound's molecular structure leads to increased light absorption around 365 nm. Wavelengths shorter than 300 nm is highly energetic and can easily damage tissues and cells. Therefore, 365 nm was considered as the optimal wavelength for deprotection.
Figure S2. UV-cleavage test on the Compound 3 in culture medium DMEM. Compound 3 were dissolved in DMEM medium containing 0.1 %DMSO and added to 96-well plates at a final concentration of 10 μM. After being irradiated for 1 min and 3 min at 365 nm respectively, the samples were analyzed by HPLC. The peak area is plotted against the irradiation time. […]

[10] abbreviates: UV+, compound irradiated 20 min at 365 nm before addition to cells.

T1 sequence (P09874 whole entry): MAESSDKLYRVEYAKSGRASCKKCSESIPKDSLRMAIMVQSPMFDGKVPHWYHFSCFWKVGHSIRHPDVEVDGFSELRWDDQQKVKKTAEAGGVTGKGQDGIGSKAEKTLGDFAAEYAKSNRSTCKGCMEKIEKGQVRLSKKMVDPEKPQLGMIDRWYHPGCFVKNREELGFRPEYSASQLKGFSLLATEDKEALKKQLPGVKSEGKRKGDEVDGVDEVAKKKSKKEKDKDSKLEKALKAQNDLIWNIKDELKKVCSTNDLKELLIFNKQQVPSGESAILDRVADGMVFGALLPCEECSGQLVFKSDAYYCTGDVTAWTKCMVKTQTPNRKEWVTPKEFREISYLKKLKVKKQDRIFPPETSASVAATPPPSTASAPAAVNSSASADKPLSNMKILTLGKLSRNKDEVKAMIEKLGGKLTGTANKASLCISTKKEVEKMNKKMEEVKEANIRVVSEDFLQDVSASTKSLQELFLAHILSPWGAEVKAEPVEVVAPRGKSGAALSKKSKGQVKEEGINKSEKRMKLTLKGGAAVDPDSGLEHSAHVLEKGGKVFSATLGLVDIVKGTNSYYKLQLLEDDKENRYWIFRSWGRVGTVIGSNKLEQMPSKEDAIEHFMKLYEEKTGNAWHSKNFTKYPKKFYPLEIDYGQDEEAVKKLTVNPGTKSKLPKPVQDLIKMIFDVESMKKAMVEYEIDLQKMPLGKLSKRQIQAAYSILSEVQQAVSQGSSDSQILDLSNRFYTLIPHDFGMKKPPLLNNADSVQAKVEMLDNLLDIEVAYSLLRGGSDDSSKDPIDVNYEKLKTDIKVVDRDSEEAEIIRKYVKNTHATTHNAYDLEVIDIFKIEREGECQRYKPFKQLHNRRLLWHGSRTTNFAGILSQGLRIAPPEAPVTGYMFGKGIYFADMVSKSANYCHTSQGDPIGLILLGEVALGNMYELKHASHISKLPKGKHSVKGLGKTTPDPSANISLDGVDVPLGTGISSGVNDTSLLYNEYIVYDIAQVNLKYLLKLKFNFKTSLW

With `Cn1ncnc1[C@H]1c2n[nH]c(=O)c3cc(F)cc(c23)N[C@@H]1c1ccc(F)cc1` [Talazoparib, reference compound], the IC50 in data set [1] is […]; in data set [2] (240 h, UV-, no irradiation), 15 nM; in [3] (240 h, UV-, no irradiation), 3 nM; in [5], […]. Besides, the “UV stability (HPLC peak area)” value in data set [4] is recorded as “no significant loss”.
Turning to `Cn1ncnc1[C@H]1c2nn(Cc3cc4c(cc3[N+](=O)[O-])OCO4)c(=O)c3cc(F)cc(c23)N[C@@H]1c1ccc(F)cc1` [compound 3, (8S,9R)-5-Fluoro-8-(4-fluorophenyl)-9-(1-methyl-1H-1,2,4-triazol-5-yl)-2-((6-nitrobenzo[d][1,3]dioxol-5-yl)methyl)-2,7,8,9-tetrahydro-3H pyrido[4,3,2-de]phthalazin-3-one], the IC50 in [6] was found to be 1920 nM; in data set [1], 329 nM; in data set [2] (240 h, UV-, no irradiation), 1870 nM; in data set [2] (UV+, 365 nm irradiation of cells 1 min after 1 h incubation), 577 nM; in data set [3] (240 h, UV-, no irradiation), 863 nM; in [3] (UV+, 365 nm irradiation of cells 3 min after 1 h incubation), 92 nM. Also, in [6] (ratio of IC50 values, compound 3 vs Talazoparib), the “reduction of PARP-1 inhibitory activity versus Talazoparib” value is listed as 380 times. Further, the “decrease of PARylation inhibitory activity versus Talazoparib” value in [1] (ratio of IC50 values) is reported as not below 658 times. The “inhibitory activity on MX-1 cells after UV irradiation versus non-irradiated group” value in [2] (UV 1 min vs no UV) is on record as “approximately three times higher”. Moreover, the “inhibitory activity on Capan-1 cells after UV irradiation versus non-irradiated group” value in [3] (UV 3 min vs no UV) was “nine times higher”. Besides, the “stability in PBS (HPLC peak area)” value in data set [7] is given as “did not show significant changes”. Besides, in [8], the “irradiation time to complete release (photolysis)” value worked out at 3 min. For the same molecule, the “release after UV irradiation under cytotoxicity experimental conditions” value in data set [9] is “not released completely”.
As for `C[C@H](NC(=O)OC(C)(C)C)C(=O)OCc1cc2c(cc1[N+](=O)[O-])OCO2` [compound 6, (6-Nitrobenzo[d][1,3]dioxol-5-yl)methyl (tert-butoxycarbonyl)-L-alaninate], the IC50 was more than 10000 nM in [2] (240 h, UV-, no irradiation); more than 10000 nM in [2] (setting [10]); more than 10000 nM in data set [3] (240 h, UV-, no irradiation); more than 10000 nM in [3] (setting [10]). Besides, in [8], the “irradiation time to complete release (photolysis)” value is on record as not above 20 min.
